Measurements from patent US20250161287A1, “METHODS, COMPOSITIONS, AND COMBINATIONS FOR PREVENTING OR TREATING CANCER RECURRENCE” (VUJA DE SCIENCES, INC., priority 2022, published 2025).
“Also recorded” adds a separate entry of the source. Where two headings read alike, the source gives them in different places.

Experiments:
[1] = tested on: MG63.3 OS cell line; assay: in vitro 3D BME assay with MG63.3 OS cell line; assay type: cell-based, human; settings: for activity on 3D BME compared with 2D: MG63.3, 3D BME vs 2D MTT 72 h
From the text: (§1) 3D basement membrane extract (BME) assay was developed at the NCI Barkan (D. Barkan et al. 2008; Dalit Barkan and Green 2011; Hen and Barkan 2020). BME is purified from Engelbreth-Holm-Swarm (EHS) tumor, primarily made up of laminin, collagen IV, entactin, and heparin sulfate proteoglycans (Cultrex Reduced Growth Factor Basement Membrane Extract, PathClear n.d.), which allows it to more accurately reflect the 3D extracellular environment in the body.
(§2) Initially >150 selected therapeutic agents were tested on BME based on the likelihood for either a positive effect or a […] negative effect (as negative controls). […] These therapeutic agents were also tested in dose response (as broad as 1 pM-100 μM) for 2D cytotoxicity (MTT) and the IC50 was calculated. Where required, the hits from the initial screen were also further characterized at additional doses <100 nM in order to further determine the relative selectivity compared to the 2D IC50.
(§3) The influence of drug exposure on the metastatic phenotype was assessed in an in vitro assay of ME and escape from dormancy using a 3D BME assay as previously reported, which was adapted for use with OS cells.
(§4) Cultrex® PathClear, Reduced Growth Factor Basement Membrane Extract (BME—Bio-Techne, Minneapolis, MN) was added ([…]) to a 96-well plate and allowed to gel by incubating at 37° C. for ≥30 min. Cells were harvested, washed with DMEM (no glucose, no FBS, Gibco, Grand Island, NY) and centrifuged at 1500 g×5 mins. The media was aspirated and the remaining cell pellet flicked for about 10 s to ensure disaggregation.
(§5) Cells were diluted in assay media containing 2% BME, resuspended vigorously and 150 μL of the cell suspension was added on top of the gelled 3D BME layer. […] Cell numbers were determined in control vehicle (cells in media+0.1% DMSO), or treated wells and were measured on the indicated days by addition of 20 μL/well of MTS reagent (Cell Titer 96 Aqueous One, Promega, Madison, WI), followed by incubation at 37° C. for 2 h and absorbance measurements at 490 nm via plate reader (Molecular Devices, San Jose CA).
(§6) All conditions were conducted in quadruplicate and each experiment was carried out at least 3 separate times. All comparisons were made between treatment and vehicle control at concordant time points. Statistical analyses and non-linear regressions were derived using GraphPad Prism statistical software.

[2] = tested on: MG63.3 OS cell line; assay: 2D growth / cytotoxicity by MTT, MG63.3; settings: for doses exhibiting cytotoxicity on 2D growth: 72 h
Protocol: (§7) The number of viable cells present in 2D culture was determined by MTT as previously reported. Briefly, cells were plated in 96-well plates at 2,000 cells/well and incubated at 37° C. for 24 h. After 24 h, the media was replaced with fresh media containing drugs at the desired concentrations (10 pM-10 μM) and incubated at 37° C. for 72 h. After 72 h, MTT reagent (20 L/well of a 5 mg/mL stock solution in sterile water; Sigma, St. Louis, MO) was added to each well and the plate was incubated at 37° C. for 2 h. DMSO ([…]) was then added to each well to solubilize the formazan crystals.
(§8) The resulting absorbance was measured at 490 nm via plate reader (Molecular Devices, San Jose, CA). DMSO (0.1%) was used as vehicle control, while 20 μM rapamycin was used as a positive cell-kill control. The experimental conditions were conducted in triplicate and each experiment was repeated three times. Regression lines and IC50's were calculated using a four-parameter variable slope nonlinear fit in GraphPad Prism.

[3] = tested on: MG63.3 human OS cells; assay: PuMA (ex vivo Pulmonary Metastasis Assay) with MG63.3; assay type: cell-based; settings: single agents, two doses: 100 nM and 1 μM (rapamycin 100 nM and 1 pM [sic]; AZD8055 10 and 100 nM), replicates=3-5
Protocol: FIG. 23A is a schematic illustrating the metastatic progression of GFP-expressing OS cells conducted by injecting single cells via tail vein injection, followed by lung excision and insufflation 15 mins post-injection. The formation of multicellular colonies in the mouse lung microenvironment can be assessed 14-21 days post-injection.
Dissected lungs are then sectioned and grown on sponges.

[4] = given alone at 2 mg/day, cited from earlier work
[5] = tested on: MG63.3 OS cells; assay: in vitro SISGel assay with highly metastatic MG63.3 OS cells; assay type: cell-based, human; settings: for lowest dose leading to appreciable inhibition of 3D growth: MG63.3 on SISGel, vs vehicle control, replicates=4; for activity on 3D SISGel compared with 2D: MG63.3, SISGel vs 2D MTT 72 h
From the text: SISGel is comprised of porcine small intestine submucosa gel that was originally developed at Oklahoma State U., by R. Hurst (CSO) and M. Ihnat (Consultant) (Bailey-Downs et al. 2014; Hurst et al. 2013, 2015, 2016). Unlike BME which is derived from a tumor-based matrix, SISGel is derived from healthy stroma and provides a suppressive “normal” ECM. […] Conditions have been identified that promoted suppressed ME-type profile (FIG. 2A). […] In addition to SISGel's complementarity to the BME assay, it can also be conducted in a 96-well format, enabling a high-throughput system to model suppressed/dormant cancer cells to further validate the screening results in BME.

[6] = tested on: K7M2 OS cell line; assay: 2D growth / cytotoxicity by MTT, K7M2; assay type: cell-based, mouse; settings: for non-cytotoxic drug exposures in 2D: K7M2, MTT 72 h, 10 pM-100 μM
Protocol: as §7, with “After 24 h, the media was replaced with fresh media containing drugs at the desired concentrations (10 pM-10 μM) and incubated at 37° C. for 72 h.” left out
as §8

[7] = tested on: K7M2 OS cell line; assay: in vitro 3D BME assay with K7M2 OS cell line; assay type: cell-based, mouse
From the text: as §1, §2, §3, §4, §5, §6

[8] = Homo sapiens, MG-63.3, MG63.3 on 3D BME, vs vehicle control, replicates=4, read-out: lowest dose leading to appreciable inhibition of 3D growth
[9] = MG63.3 on 3D BME, vs vehicle control, replicates=4, read-out: lowest dose leading to appreciable inhibition of 3D growth

COc1ccc(-c2ccc3c(N4CCOC[C@@H]4C)nc(N4CCOC[C@@H]4C)nc3n2)cc1CO [AZD8055]
minimal effective concentration [1, 8]: 0.1 µM
activity on 3D BME compared with 2D [1]: much stronger activity on 3D BME at slightly lower doses
doses exhibiting cytotoxicity on 2D growth ([2]; human): > 100 nM
inhibition of ME (loss of GFP signal in the lung tissue) [3]: strong inhibition of ME

CO[C@H]1C[C@@H]2CC[C@@H](C)[C@@](O)(O2)C(=O)C(=O)N2CCCC[C@H]2C(=O)O[C@H]([C@H](C)C[C@@H]2CC[C@@H](O)[C@H](OC)C2)CC(=O)[C@H](C)/C=C(\C)[C@@H](O)[C@@H](OC)C(=O)[C@H](C)C[C@H](C)/C=C/C=C/C=C/1C [rapamycin]
whole blood trough concentration mean ([4]; months 4 through 12): 19 ng/mL
whole blood trough concentration range ([4]; months 4 through 12): 14 to 22 ng/mL
whole blood trough concentration mean ([4]; year 3): 16 ng/mL
whole blood trough concentration range ([4]; year 3): 11 to 22 ng/mL
minimal effective concentration [1, 9]: 0.0005 µM
lowest dose leading to appreciable inhibition of 3D growth [5]: 1000 pM
doses leading to significant cytotoxicity on 2D growth ([6]; K7M2, MTT, 72 h, tested 15 nM-100 μM): ≥ 10 PM

CNC(=O)c1cc(Oc2ccc(NC(=O)Nc3ccc(Cl)c(C(F)(F)F)c3)c(F)c2)ccn1 [regorafenib]
effect on metastatic phenotype / 3D growth in 3D BME (words) ([7]; K7M2, Day 6 MTS, at or below 1 μM): consistently inhibit 3D growth across both cell lines
inhibition in 3D BME at 100 nM ([7]; K7M2, Day 6 growth by MTS): Significant inhibition was not seen
inhibition at 1 µM ([7]; Mus musculus, 144 h, K7M2, Day 6 growth by MTS, P<0.005): ~20%
inhibition at 1 µM ([1]; Homo sapiens, MG-63.3, 144 h, MG63.3, Day 6 growth by MTS, P<0.005): ~20%
effect on metastatic phenotype / 3D growth in 3D BME (words) ([1]; MG63.3, Day 6 MTS, at or below 1 μM): consistently inhibit 3D growth across both cell lines
inhibition in 3D BME at 100 nM ([1]; MG63.3, Day 6 growth by MTS): Significant inhibition was not seen
non-cytotoxic drug exposures in 2D [6]: below 1 μM
effect on cell number in 2D monolayer ([2]; MG63.3, MTT, exposures up to 1 μM / assessed exposures): no effect on remaining cell number

CO[C@H]1C[C@@H]2CC[C@@H](C)[C@@](O)(O2)C(=O)C(=O)N2CCCC[C@H]2C(=O)O[C@H]([C@H](C)C[C@@H]2CC[C@@H](OP(C)(C)=O)[C@H](OC)C2)CC(=O)[C@H](C)/C=C(\C)[C@@H](O)[C@@H](OC)C(=O)[C@H](C)C[C@H](C)/C=C/C=C/C=C/1C [ridaforolimus]
minimal effective concentration [1, 8]: 0.001 µM
activity on 3D BME compared with 2D [1]: much stronger activity on 3D BME at significantly lower doses
activity on 3D SISGel compared with 2D [5]: much stronger activity on 3D SISGel at significantly lower doses
lowest dose leading to appreciable inhibition of 3D growth [5]: 100 pM
doses exhibiting cytotoxicity on 2D growth ([2]; human): > 33000 nM
inhibition of ME (loss of GFP signal in the lung tissue) [3]: strong inhibition of ME

CC(C)n1nc(-c2ccc3oc(N)nc3c2)c2c(N)ncnc21 [sapanisertib]
minimal effective concentration [1, 8]: 0.001 µM
doses exhibiting cytotoxicity on 2D growth ([2]; human): > 8 nM

CN1CCN(CCOc2cc(OC3CCOCC3)c3c(Nc4c(Cl)ccc5c4OCO5)ncnc3c2)CC1 [saracatinib]
non-cytotoxic drug exposures in 2D [6]: below 1 μM

Cn1ncnc1[C@H]1c2n[nH]c(=O)c3cc(F)cc(c23)N[C@@H]1c1ccc(F)cc1 [talazoparib]
minimal effective concentration [1, 8]: 0.0125 µM
activity on 3D BME compared with 2D [1]: much stronger activity on 3D BME at significantly lower doses
doses exhibiting cytotoxicity on 2D growth ([2]; human): > 100 nM

C=CCNC1=C2C[C@@H](C)C[C@H](OC)[C@H](O)[C@@H](C)/C=C(\C)[C@H](OC(N)=O)[C@@H](OC)/C=C\C=C(/C)C(=O)NC(=CC1=O)C2=O [tanespimycin]
minimal effective concentration ([1]; Homo sapiens, MG-63.3, read-out: lowest dose leading to appreciable inhibition of 3D growth): 0.025 µM
doses exhibiting cytotoxicity on 2D growth ([2]; MG63.3, MTT, replicates=3): > 25 nM

O=C(Cc1cccc(OC(F)(F)F)c1)Nc1ccc(CCCCc2nnc(NC(=O)Cc3ccccn3)s2)nn1 [telaglenastat]
minimal effective concentration [1, 8]: 0.001 µM
activity on 3D BME compared with 2D [1]: much stronger activity on 3D BME at significantly lower doses; also recorded: more active in 3D than in 2D
minimal effective concentration [1, 9]: 0.001 µM
growth in cell number in 3D BME at highest 2D inactive dose ([1]; telaglenastat 100 nM, MG63.3): 10%
doses exhibiting cytotoxicity on 2D growth ([2]; human): > 100 nM
effect in 2D at the same dose ([2]; telaglenastat 100 nM, MG63.3): no statistically significant inhibition; also recorded: inactive

CO[C@H]1C[C@@H]2CC[C@@H](C)[C@@](O)(O2)C(=O)C(=O)N2CCCC[C@H]2C(=O)O[C@H]([C@H](C)C[C@@H]2CC[C@@H](OC(=O)C(C)(CO)CO)[C@H](OC)C2)CC(=O)[C@H](C)/C=C(\C)[C@@H](O)[C@@H](OC)C(=O)[C@H](C)C[C@H](C)/C=C/C=C/C=C/1C [temsirolimus]
minimal effective concentration [1, 8]: 0.001 µM
activity on 3D BME compared with 2D [1]: much stronger activity on 3D BME at significantly lower doses
activity on 3D SISGel compared with 2D [5]: much stronger activity on 3D SISGel at significantly lower doses
lowest dose leading to appreciable inhibition of 3D growth [5]: 1 pM
inhibition of ME (loss of GFP signal in the lung tissue) [3]: strong inhibition of ME

CC(C)[C@]12O[C@H]1[C@@H]1O[C@]13[C@]1(O[C@H]1C[C@H]1C4=C(CC[C@@]13C)C(=O)OC4)[C@@H]2O [triptolide]
lowest dose leading to complete inhibition of 3D growth ([1]; MG63.3 on 3D BME, vs vehicle control, replicates=4): 1 nM
cytotoxicity on 2D growth [2]: cytotoxicity at all doses tested

CNC(=O)c1cccc(-c2ccc3c(N4CCOC[C@@H]4C)nc(N4CCOC[C@@H]4C)nc3n2)c1 [vistusertib]
minimal effective concentration [1, 8]: 0.1 µM
activity on 3D BME compared with 2D [1]: slightly stronger activity on 3D BME at 100 nM
doses exhibiting cytotoxicity on 2D growth ([2]; human): > 0.64 nM
